Blank lines part the entries; values can stand above or below the molecule they belong to.
Key:
[1] = Linear oscillatory shear rheology (gelation temperature, storage and loss moduli); settings: for effect on plateau values of G′ and G″ / mechanical properties and gelation temperature: CPE added separately to Cip-18% [P407-PBP]; for reduction of gelation temperature: CPE added separately to Cip-18% [P407-PBP] (1% SDS, 2% limonene or 0.5% bupivacaine)
[2] = Pharmacokinetics in the OM model: ciprofloxacin in middle ear fluid and plasma; type: in vivo, chinchilla; settings: animals treated with the standard formulation
[3] = test system: non-typable H. influenzae (NTHi); settings: cited from earlier work
S. pneumoniae = settings: cited from earlier work
[4] = Ex vivo permeation of ciprofloxacin across the tympanic membrane
[5] = 2% limonene added to Cip-18% [P407-PBP]

effect on plateau values of G′ and G″ / mechanical properties and gelation temperature [1]: did not affect | reduction of gelation temperature [1]: ~1.5 °C
Compound: CCCCCCCCCCCCOS(=O)(=O)[O-].[Na+] [SDS, Sodium dodecyl sulfate]

Compound: O=C(O)c1cn(C2CC2)c2cc(N3CCNCC3)c(F)cc2c1=O [ciprofloxacin]
ciprofloxacin in the blood [2]: undetectable | MIC for non-typable H. influenzae (NTHi) [3]: <0.1 to 0.5 µg/mL | minimum inhibitory concentration (MIC) of NTHi [3]: 0.1 to 0.5 µg/mL | minimum inhibitory concentration for H. influenza middle ear infections [3]: about 4 μg/mL | MIC for S. pneumoniae (S. pneumoniae): 0.5 to 4 µg/mL | minimum inhibitory concentration for S. pneumoniae middle ear infections (S. pneumoniae): about 4 μg/mL

effect on plateau values of G′ and G″ / mechanical properties and gelation temperature [1]: minimal effects
Compound: CCCCN1CCCCC1C(=O)Nc1c(C)cccc1C (centres unmarked) [Bupivacaine]

Compound: C=C(C)[C@H]1CC=C(C)CC1 [limonene]
concentration-dependent increase in ciprofloxacin transfer ([4]; 48 hours, limonene added): two-to-three-fold | time at which ciprofloxacin was detected in the receiving buffer ([4]; limonene added to ciprofloxacin): 1 to 2 h | decrease of G″ [1, 5]: 4.1 kPa | increase of G′ [1, 5]: 10.5 kPa | reduction of gelation temperature [1]: 14 °C

Source: patent US12053527B2, “Compositions with permeation enhancers for drug delivery” (priority 2015, dated 2024)
